Tests used:
Type in all cases: cell-based, human
SK-MEL-28 = assay: SRB colorimetric assay of cell growth and viability, SK-MEL-28; details: 48 hours exposure; for CC50: read-out: LC50 MEL-28
IGROV-1 = assay: SRB colorimetric assay of cell growth and viability, IGROV-1; details: 48 hours exposure
LoVo-Dox = assay: SRB colorimetric assay of cell growth and viability, LoVo-Dox; details: 48 hours exposure; for CC50: read-out: LC50 LOVO-DOX
How it was run: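 Tumor cells are continuously exposed to sample for 48 hours, with vehicle DMSO:EtOH:PBS (0.5:0.5:99), after an 18-hour drug-free attachment period. Bound SRB, measured at 490 nm, reflects cell mass; GI, TGI and LC are derived from triplicate means.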

PANC-1 = assay: SRB colorimetric assay of cell growth and viability, PANC-1; details: 48 hours exposure; for CC50: read-out: LC50 PANC-1
DU-145 = assay: SRB colorimetric assay of cell growth and viability, DU-145; details: 48 hours exposure
HeLa = assay: SRB colorimetric assay of cell growth and viability, HeLa; details: 48 hours exposure; for CC50: read-out: LC50 HELA
A-549 = assay: SRB colorimetric assay of cell growth and viability, A-549; details: 48 hours exposure; for GI50: read-out: GI50 A-549; for CC50: read-out: LC50 A-549
HT-29 = assay: SRB colorimetric assay of cell growth and viability, HT-29; details: 48 hours exposure; for GI50: read-out: GI50 HT-29; for CC50: read-out: LC50 HT-29
IGROV-ET = assay: SRB colorimetric assay of cell growth and viability, IGROV-ET; details: 48 hours exposure; for CC50: read-out: LC50 IGROV-ET
LoVo = assay: SRB colorimetric assay of cell growth and viability, LoVo; details: 48 hours exposure; for CC50: read-out: LC50 LOVO
HeLa-APL = assay: SRB colorimetric assay of cell growth and viability, HeLa-APL; details: 48 hours exposure; for CC50: read-out: LC50 HELA-APL
K-562 = assay: SRB colorimetric assay of cell growth and viability, K-562; details: 48 hours exposure; for CC50: read-out: LC50 K-562

SMILES	GI50 (SK-MEL-28)	TGI MEL-28 (SK-MEL-28)	CC50 (SK-MEL-28)	GI50 (IGROV-1)	LC50 (concentration causing 50% net cell killing) (IGROV-1)	TGI IGROV (IGROV-1)	GI50 (LoVo-Dox)	TGI LOVO-DOX (LoVo-Dox)	CC50 (LoVo-Dox)	GI50 (PANC-1)	TGI PANC-1 (PANC-1)	CC50 (PANC-1)	GI50 (DU-145)	LC50 (concentration causing 50% net cell kill) (DU-145)	TGI DU-145 (DU-145)	GI50 (HeLa)	TGI HELA (HeLa)	CC50 (HeLa)	TGI A-549 (A-549)	GI50 (A-549)	further results
C/C=C1\NC(=O)[C@H](Cc2ccccc2)NC(=O)[C@@H](C(C)C)NC(=O)[C@@H]([C@@H](C)CC)NC(=O)[C@H](NC(=O)[C@H](NC(=O)[C@H](CCCN)NC(=O)[C@H]2CCCN2C(=O)[C@H](NC(=O)[C@@H](NC(=O)[C@@H](NC(=O)[C@@H](C)NC(=O)CCCC(C)C)[C@@H](C)O)C(C)C)C(C)C)[C@@H](C)CC)[C@@H](C)OC(=O)[C@H](C(C)C)NC1=O [Compound 34, [D-Ala^13]-KF]	1.81 µM	3.01E−06 Molar	5 µM	1.41 µM	4.03 µM	2.38E−06 Molar	0.35 µM	9.73E−07 Molar	2.48 µM	1.28 µM	2.58E−06 Molar	5.21 µM	2.21 µM	4.79 µM	3.26E−06 Molar	1.46 µM	2.43E−06 Molar	4.06 µM	3.20E−06 Molar	1.98 µM	CC50 (A-549): 5.17 µM; TGI HT-29 (HT-29): 2.32E−06 Molar; GI50 (HT-29): 1.25 µM; CC50 (HT-29): 4.3 µM; GI50 (IGROV-ET): 1.58 µM; TGI IGROV-ET (IGROV-ET): 2.56E−06 Molar; CC50 (IGROV-ET): 4.14 µM; GI50 (LoVo): 0.904 µM; TGI LOVO (LoVo): 1.77E−06 Molar; CC50 (LoVo): 2.98 µM; GI50 (HeLa-APL): 1.59 µM; TGI HELA-APL (HeLa-APL): 2.63E−06 Molar; CC50 (HeLa-APL): 4.34 µM; GI50 (K-562): 1.34 µM; TGI K-562 (K-562): 2.66E−06 Molar; CC50 (K-562): 5.25 µM
C/C=C1\NC(=O)[C@H](Cc2ccccc2)NC(=O)[C@@H](C(C)C)NC(=O)[C@@H]([C@@H](C)CC)NC(=O)[C@H](NC(=O)[C@H](NC(=O)[C@H](CCCN)NC(=O)[C@H]2CCCN2C(=O)[C@H](NC(=O)[C@@H](NC(=O)[C@@H](NC(=O)[C@H]2CCCN2C(=O)CCCC(C)C)[C@@H](C)O)C(C)C)C(C)C)[C@@H](C)CC)[C@@H](C)OC(=O)[C@H](C(C)C)NC1=O [Compound 37, [D-Pro^13]-KF]	0.0766 µM	2.76E−07 Molar	1.3 µM	0.165 µM	2.55 µM	8.27E−07 Molar	1.78 µM	4.30E−06 Molar	6.78 µM	0.0154 µM	3.12E−08 Molar	0.0628 µM	0.228 µM	1.96 µM	5.81E−07 Molar	0.0129 µM	2.83E−08 Molar	0.062 µM	3.90E−08 Molar	0.0174 µM	CC50 (A-549): 0.813 µM; TGI HT-29 (HT-29): 6.78E−06 Molar; GI50 (HT-29): 0.391 µM; CC50 (HT-29): 6.78 µM; GI50 (IGROV-ET): 1.21 µM; TGI IGROV-ET (IGROV-ET): 2.24E−06 Molar; CC50 (IGROV-ET): 4.15 µM; GI50 (LoVo): 0.114 µM; TGI LOVO (LoVo): 1.02E−06 Molar; CC50 (LoVo): 2.97 µM; GI50 (HeLa-APL): 0.888 µM; TGI HELA-APL (HeLa-APL): 2.01E−06 Molar; CC50 (HeLa-APL): 4.55 µM; GI50 (K-562): 0.684 µM; TGI K-562 (K-562): 1.48E−06 Molar; CC50 (K-562): 3.2 µM
C/C=C1\NC(=O)[C@H](Cc2ccccc2)NC(=O)[C@@H](C(C)C)NC(=O)[C@@H]([C@@H](C)CC)NC(=O)[C@H](NC(=O)[C@H](NC(=O)[C@H](CCCN)NC(=O)[C@H]2CCCN2C(=O)[C@H](NC(=O)[C@@H](NC(=O)[C@@H](NC(=O)[C@@H](CCC(=O)O)NC(=O)CCCC(C)C)[C@@H](C)O)C(C)C)C(C)C)[C@@H](C)CC)[C@@H](C)OC(=O)[C@H](C(C)C)NC1=O [Compound 39, [D-Glu^13]-KF]	3.39 µM	6.63E−06 Molar	6.63 µM	1.33 µM	4.11 µM	2.33E−06 Molar	0.889 µM	1.70E−06 Molar	3.26 µM	4.1 µM	6.63E−06 Molar	6.63 µM	3.48 µM	6.63 µM	6.63E−06 Molar	4.18 µM	6.63E−06 Molar	6.63 µM	6.63E−06 Molar	4.41 µM	CC50 (A-549): 6.63 µM; TGI HT-29 (HT-29): 2.16E−06 Molar; GI50 (HT-29): 1.2 µM; CC50 (HT-29): 3.87 µM; GI50 (IGROV-ET): 1.29 µM; TGI IGROV-ET (IGROV-ET): 2.29E−06 Molar; CC50 (IGROV-ET): 4.09 µM; GI50 (LoVo): 0.889 µM; TGI LOVO (LoVo): 1.72E−06 Molar; CC50 (LoVo): 3.34 µM; GI50 (HeLa-APL): 2.75 µM; TGI HELA-APL (HeLa-APL): 6.63E−06 Molar; CC50 (HeLa-APL): 6.63 µM; GI50 (K-562): 1.27 µM; TGI K-562 (K-562): 2.47E−06 Molar; CC50 (K-562): 4.82 µM
C/C=C1\NC(=O)[C@H](Cc2ccccc2)NC(=O)[C@@H](C(C)C)NC(=O)[C@@H]([C@@H](C)CC)NC(=O)[C@H](NC(=O)[C@H](NC(=O)[C@H](CCCN)NC(=O)[C@H]2CCCN2C(=O)[C@H](NC(=O)[C@@H](NC(=O)[C@@H](NC(=O)[C@@H](CCC(N)=O)NC(=O)CCCC(C)C)[C@@H](C)O)C(C)C)C(C)C)[C@@H](C)CC)[C@@H](C)OC(=O)[C@H](C(C)C)NC1=O [Compound 40, [D-Gln^13]-KF]	1.22 µM	2.27E−06 Molar	4.2 µM	1.04 µM	3.62 µM	1.94E−06 Molar	0.267 µM	8.23E−07 Molar	2.23 µM	0.13 µM	3.01E−07 Molar	0.863 µM	1.79 µM	5.24 µM	3.06E−06 Molar	0.642 µM	1.58E−06 Molar	3.86 µM	7.83E−07 Molar	0.318 µM	CC50 (A-549): 2.45 µM; TGI HT-29 (HT-29): 1.87E−06 Molar; GI50 (HT-29): 0.949 µM; CC50 (HT-29): 3.69 µM; GI50 (IGROV-ET): 1.31 µM; TGI IGROV-ET (IGROV-ET): 2.24E−06 Molar; CC50 (IGROV-ET): 3.79 µM; GI50 (LoVo): 0.664 µM; TGI LOVO (LoVo): 1.41E−06 Molar; CC50 (LoVo): 2.98 µM; GI50 (HeLa-APL): 2.28 µM; TGI HELA-APL (HeLa-APL): 5.94E−06 Molar; CC50 (HeLa-APL): 6.64 µM; GI50 (K-562): 1.23 µM; TGI K-562 (K-562): 2.34E−06 Molar; CC50 (K-562): 4.42 µM
C/C=C1\NC(=O)[C@H](Cc2ccccc2)NC(=O)[C@@H](C(C)C)NC(=O)[C@@H]([C@@H](C)CC)NC(=O)[C@H](NC(=O)[C@H](NC(=O)[C@H](CCCN)NC(=O)[C@H]2CCCN2C(=O)[C@H](NC(=O)[C@@H](NC(=O)[C@@H](NC(=O)[C@@H](CC(C)C)NC(=O)CCCC(C)C)[C@@H](C)O)C(C)C)C(C)C)[C@@H](C)CC)[C@@H](C)OC(=O)[C@H](C(C)C)NC1=O [Compound 35, [D-Leu^13]-KF]	1.17 µM	2.10E−06 Molar	3.79 µM	0.717 µM	3.24 µM	1.53E−06 Molar	0.158 µM	3.46E−07 Molar	0.871 µM	0.751 µM	1.87E−06 Molar	4.67 µM	0.905 µM	3.53 µM	1.79E−06 Molar	0.878 µM	1.74E−07 Molar	3.43 µM	9.58E−07 Molar	0.124 µM	CC50 (A-549): 2.65 µM; TGI HT-29 (HT-29): 1.62E−06 Molar; GI50 (HT-29): 0.771 µM; CC50 (HT-29): 3.39 µM; GI50 (IGROV-ET): 0.684 µM; TGI IGROV-ET (IGROV-ET): 1.49E−06 Molar; CC50 (IGROV-ET): 3.26 µM; GI50 (LoVo): 0.2 µM; TGI LOVO (LoVo): 8.04E−07 Molar; CC50 (LoVo): 2.28 µM; GI50 (HeLa-APL): 0.0133 µM; TGI HELA-APL (HeLa-APL): 1.31E−06 Molar; CC50 (HeLa-APL): 6.7 µM; GI50 (K-562): 1.23 µM; TGI K-562 (K-562): 2.30E−06 Molar; CC50 (K-562): 4.28 µM
